Laboratory results: patent US4965280A, “Antifungal carbinols” (E. I. Du Pont de Nemours and Company, priority 1989, dated 1990)
In brackets after ≈: the same amount, converted by molar mass.

Key:
[1] = test system: Cercosporidium personatum; test: Example B Peanut Late Leafspot; format: in vivo; conditions: Nothopassalora personata, read-out: disease control rating, Ex. B
Procedure, shortened: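 Spray suspensions at 100 or 20 ppm, prepared from acetone solutions (acetone 6% of final volume) in water carrying 250 ppm of a polyhydric alcohol ester surfactant, were applied to peanut seedlings until run-off.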

[2] = test system: Botrytis cinerea; test: Example C bean grey mold; format: in vivo; conditions: Botrytis cinerea, 24 h, read-out: disease control rating, Ex. C
Procedure, shortened: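 Spray rates: 100 and 20 ppm. Vehicle: purified water with 6% acetone by final volume plus 250 ppm TREM 014 (polyhydric alcohol esters). Host plants, broad bean seedlings, were wetted until run-off.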

[3] = test system: Puccinia recondita; test: Example G wheat leaf rust; format: in vivo; conditions: read-out: disease control rating, Ex. G
[4] = test system: Phytophthora infestans; test: whole plant or invertebrate; format: in vivo; conditions: Phytophthora infestans, in Solanum lycopersicum, read-out: disease control rating, Ex. H, 100 PPM
[5] = test system: Plasmorpara viticola; test: Example I grape downy mildew; format: in vivo; conditions: read-out: disease control rating, Ex. I
Procedure, shortened: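 First, each compound is taken up in acetone amounting to 6% of the final volume. It is then suspended in purified water containing 250 ppm of the polyhydric alcohol ester surfactant TREM 014, at 100 or 20 ppm. Finally, the suspension is sprayed onto grape seedlings until run-off.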

[6] = test system: Pythium aphanadermatum; test: Example J cucumber damping off; format: in vivo; conditions: Pythium, 336 h; 5 kg/ha; read-out: disease control rating, Ex. J
Procedure, shortened: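 Seeds and soil were inoculated with a mix of sand, cereal and Pythium aphanadermatum mycelium, the fungus responsible for cucumber damping off. They were kept in a growth chamber at 30° C. for 14 days, and disease was then rated to assess control.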

[7] = test system: Fusarium oxysporum f. sp. cucumerinum; test: Example L cucumber wilt; format: in vivo; conditions: 336 h, 5 kg/ha, read-out: disease control rating, Ex. L
Protocol: […] Seeds and soil were then inoculated with a mixture of sand, cereal and mycelium of the fungus Fusarium oxysporum f. sp. cucumerinum, causal agent of cucumber wilt, and incubated in a growth chamber at 30° C. for 14 days. Disease ratings were then made.

[8] = test system: BARNYARDGRASS; test: Test C rice paddy; format: in vivo, Echinochloa crusgalli; conditions: Echinochloa crus-galli, 504 h, 21 days, read-out: plant response; for pest or weed control at 64 g/ha: 0064 G/HA; for pest or weed control at 125 g/ha: 0125 G/HA; for pest or weed control at 250 g/ha: 0250 G/HA; for pest or weed control at 500 g/ha: 0500 G/HA
Text: (§1) Sixteen cm diameter Airlite plastic pots were partially filled with Tama slit loam soil and the soil saturated with water. Japonica and Indica rice seedlings a the 2.0 to 2.5 leaf stage were transplanted into 1/3 of the pots. Into another third of the pots were transplanted seedling or sprouted tubers of water plantain (Alisma trivale), Scripus (Scirpus paludosus), Cyperus (Cyperus esculentus), and arrowhead (Sagittaria spp.). The remaining pots were planted with barnyardgrass (Echinochloa crusgalli) seeds and sprouted tubes of water chestnut (Eleocharis spp.). These weeds all represent major rice weeds or genera of weeds important in rice. Three to four days after planting, the water level was raised to 3 cm (about 1200 ml/pot) and maintained a this level throughout the test. Chemical treatments were applied directly to the paddy water, within 24 hours of raising the water, after being formulated in a nonphytotoxic solvent. The pots were maintained in the greenhouse.

[9] = test system: WATERCHESTNUT; test: Test C rice paddy; format: in vivo, Eleocharis spp.; conditions: Eleocharis, 504 h, 21 days, read-out: plant response; for pest or weed control at 64 g/ha: 0064 G/HA; for pest or weed control at 125 g/ha: 0125 G/HA; for pest or weed control at 250 g/ha: 0250 G/HA; for pest or weed control at 500 g/ha: 0500 G/HA
Text: as §1

[10] = test system: RICE JAP EFF; test: Test C rice paddy; format: in vivo, Japonica rice; conditions: Oryza sativa, 504 h, 21 days, read-out: plant response; for pest or weed control at 64 g/ha: 0064 G/HA; for pest or weed control at 125 g/ha: 0125 G/HA; for pest or weed control at 250 g/ha: 0250 G/HA; for pest or weed control at 500 g/ha: 0500 G/HA
Text: as §1

[11] = test system: LARGE CRABGRASS; test: Test D; format: in vivo, Digitaria sanguinalis
[12] = test system: JOHNSONGRASS; test: Test D; format: in vivo, Sorghum halepense
[13] = test system: IVY MORNINGLORY; test: Test D; format: in vivo, Ipomoea hederacea
[14] = test system: JIMSONWEED; test: Test D; format: in vivo, Datura stramonium
[15] = test system: Candida albicans ATCC 11651; test: In vitro antifungal MIC, microtiter broth dilution; conditions: Candida albicans, ATCC11651, 24 h, read-out: MIC values, C. albicans, 30°, 24 hours
[16] = test system: BLACK NIGHTSHAD; test: Test E; format: in vivo, Solanum nigrum; conditions: PREEMERGENCE 0250 GM/HA
[17] = test system: LAMBSQUARTER; test: Test E; format: in vivo, Chenopodium album; conditions: PREEMERGENCE 0250 GM/HA
[18] = test system: KOCHIA; test: Test E; format: in vivo, Kochia scoparia; conditions: PREEMERGENCE 0250 GM/HA

C=C(c1ccccc1Cl)C(O)(Cn1cncn1)c1ccc(Cl)cc1Cl (centres unmarked) [Example 33, 2-(2,4-Dichlorophenyl)-3-(2-chlorophenyl)-1-(1H-1,2,4-triazol-1-yl)-3-buten-2-ol]
pest or weed control at 20 ppm ([1]; 20 PPM): 99% | pest or weed control at 20 ppm ([2]; 20 PPM): 37% | pest or weed control at 100 ppm [2]: 56% | pest or weed control at 20 ppm ([3]; 20 PPM): 100% | pest or weed control at 100 ppm [4]: 0% | pest or weed control at 100 ppm [5]: 24% | pest or weed control at 5000 g/ha [6]: 0% | pest or weed control at 5000 g/ha [7]: 0% | pest or weed control at 64 g/ha [8]: 0% | pest or weed control at 125 g/ha [8]: 10% | pest or weed control at 250 g/ha [8]: 80% | pest or weed control at 500 g/ha [8]: 70% | pest or weed control at 1000 g/ha [8]: 95% | pest or weed control at 64 g/ha [9]: 0% | pest or weed control at 125 g/ha [9]: 0% | pest or weed control at 250 g/ha [9]: 0% | pest or weed control at 500 g/ha [9]: 0% | pest or weed control at 1000 g/ha [9]: 0% | pest or weed control at 64 g/ha [10]: 0% | pest or weed control at 125 g/ha [10]: 0% | pest or weed control at 250 g/ha [10]: 0% | pest or weed control at 500 g/ha [10]: 30% | pest or weed control at 1000 g/ha [10]: 60% | plant response ([11]; POSTEMERGENCE 0250 GM/HA): 0% | plant response ([11]; POSTEMERGENCE 0500 GM/HA): 0% | plant response ([11]; POSTEMERGENCE 1000 GM/HA): 0% | plant response ([11]; PREEMERGENCE 0250 GM/HA): 0% | plant response ([11]; PREEMERGENCE 0500 GM/HA): 0% | plant response ([11]; PREEMERGENCE 1000 GM/HA): 0% | plant response ([12]; POSTEMERGENCE 0250 GM/HA): 0% | plant response ([12]; POSTEMERGENCE 0500 GM/HA): 0% | plant response ([12]; POSTEMERGENCE 1000 GM/HA): 0% | plant response ([12]; PREEMERGENCE 0250 GM/HA): 0% | plant response ([12]; PREEMERGENCE 0500 GM/HA): 0% | plant response ([12]; PREEMERGENCE 1000 GM/HA): 0% | plant response ([13]; POSTEMERGENCE 0250 GM/HA): 0% | plant response ([13]; POSTEMERGENCE 0500 GM/HA): 0% | plant response ([13]; POSTEMERGENCE 1000 GM/HA): 0% | plant response ([13]; PREEMERGENCE 0250 GM/HA): 0% | plant response ([13]; PREEMERGENCE 0500 GM/HA): 0% | plant response ([13]; PREEMERGENCE 1000 GM/HA): 0% | plant response ([14]; POSTEMERGENCE 0250 GM/HA): 0% | plant response ([14]; POSTEMERGENCE 0500 GM/HA): 0% | plant response ([14]; POSTEMERGENCE 1000 GM/HA): 0% | plant response ([14]; PREEMERGENCE 0250 GM/HA): 0% | plant response ([14]; PREEMERGENCE 0500 GM/HA): 0% | plant response ([14]; PREEMERGENCE 1000 GM/HA): 0% | MIC [15]: 0.03 µg/mL (≈ 0.076 µM)

C=C(c1ccc(Cl)cc1Cl)C(O)(Cn1cncn1)c1ccccc1F (centres unmarked) [Example 107]
pest or weed control at 64 g/ha [8]: 0% | pest or weed control at 125 g/ha [8]: 0% | pest or weed control at 250 g/ha [8]: 40% | pest or weed control at 500 g/ha [8]: 90% | pest or weed control at 1000 g/ha [8]: 80% | pest or weed control at 64 g/ha [9]: 0% | pest or weed control at 125 g/ha [9]: 0% | pest or weed control at 250 g/ha [9]: 40% | pest or weed control at 500 g/ha [9]: 60% | pest or weed control at 1000 g/ha [9]: 30% | pest or weed control at 64 g/ha [10]: 0% | pest or weed control at 125 g/ha [10]: 0% | pest or weed control at 250 g/ha [10]: 30% | pest or weed control at 500 g/ha [10]: 40% | pest or weed control at 1000 g/ha [10]: 50% | plant response [16]: 80% | plant response [17]: 90% | plant response [18]: 0%

C=C(c1ccccc1Cl)C(O)(Cn1cncn1)c1ccc(F)cc1F (centres unmarked) [Example 35]
pest or weed control at 100 ppm ([1]; 100 PPM): 100% | pest or weed control at 100 ppm [2]: 96% | pest or weed control at 100 ppm ([3]; 100 PPM): 96% | pest or weed control at 100 ppm [4]: 0% | pest or weed control at 100 ppm [5]: 26% | pest or weed control at 5000 g/ha [6]: 0% | pest or weed control at 5000 g/ha [7]: 0% | pest or weed control at 64 g/ha [8]: 70% | pest or weed control at 125 g/ha [8]: 100% | pest or weed control at 250 g/ha [8]: 80% | pest or weed control at 500 g/ha [8]: 100% | pest or weed control at 1000 g/ha [8]: 95% | pest or weed control at 64 g/ha [9]: 60% | pest or weed control at 125 g/ha [9]: 40% | pest or weed control at 250 g/ha [9]: 60% | pest or weed control at 500 g/ha [9]: 0% | pest or weed control at 1000 g/ha [9]: 0% | pest or weed control at 64 g/ha [10]: 0% | pest or weed control at 125 g/ha [10]: 0% | pest or weed control at 250 g/ha [10]: 0% | pest or weed control at 500 g/ha [10]: 0% | pest or weed control at 1000 g/ha [10]: 20% | plant response ([11]; POSTEMERGENCE 0250 GM/HA): 30% | plant response ([11]; POSTEMERGENCE 0500 GM/HA): 30% | plant response ([11]; PREEMERGENCE 0064 GM/HA): 50% | plant response ([11]; PREEMERGENCE 0125 GM/HA): 70% | plant response ([11]; PREEMERGENCE 0250 GM/HA): 95% | plant response ([11]; PREEMERGENCE 0500 GM/HA): 100% | plant response ([12]; POSTEMERGENCE 0250 GM/HA): 0% | plant response ([12]; POSTEMERGENCE 0500 GM/HA): 50% | plant response ([12]; PREEMERGENCE 0064 GM/HA): 30% | plant response ([12]; PREEMERGENCE 0125 GM/HA): 30% | plant response ([12]; PREEMERGENCE 0250 GM/HA): 100% | plant response ([12]; PREEMERGENCE 0500 GM/HA): 100% | plant response ([13]; POSTEMERGENCE 0250 GM/HA): 20% | plant response ([13]; POSTEMERGENCE 0500 GM/HA): 30% | plant response ([13]; PREEMERGENCE 0064 GM/HA): 0% | plant response ([13]; PREEMERGENCE 0125 GM/HA): 0% | plant response ([13]; PREEMERGENCE 0250 GM/HA): 0% | plant response ([13]; PREEMERGENCE 0500 GM/HA): 30% | plant response ([14]; POSTEMERGENCE 0250 GM/HA): 20% | plant response ([14]; POSTEMERGENCE 0500 GM/HA): 20% | plant response ([14]; PREEMERGENCE 0064 GM/HA): 0% | plant response ([14]; PREEMERGENCE 0125 GM/HA): 0% | plant response ([14]; PREEMERGENCE 0250 GM/HA): 80% | plant response ([14]; PREEMERGENCE 0500 GM/HA): 30% | MIC [15]: 0.03 µg/mL (≈ 0.0829 µM)
